“And” between values parts separate entries of the source, which are not always exact repeats. Equal values may be shown once. Read-outs that look alike come from different tables or passages of the source.
Legend:
[1] = molecular target: T1, FES^WT (Homo sapiens, UniProt P07332); experiment: PamChip microarray peptide phosphorylation; format: biochemical; conditions: Figure 7f, WT + WEL028, n 3
T1 construct: human FES cDNA encoding residues 448–822 or human FER cDNA encoding residues 448–820 was amplified by PCR; made in house; host or cells: E. coli BL21(DE3), co-expressing YopH phosphatase

[2] = molecular target: T2, FES^S700C-SYK interaction (Homo sapiens, UniProt P07332, S700C); experiment: Co-immunoprecipitation in co-transfected U2OS cells; format: cell-based; conditions: WEL028 200 nM, 1 h
T2 construct: Full-length human cDNA encoding FES and PAK4 was obtained from Source Bioscience; expressed in transfected cells; host or cells: U2OS (human osteosarcoma)
Experimental: U2OS cells were co-transfected with FLAG-tagged FES and V5-tagged SYK and grown for 48 h as described above, followed by incubation with vehicle or WEL028 (200 nM) for 1 h. Cells were then washed with PBS and collected by scraping in IP-buffer (20 mM Tris-HCl pH 7.5, 150 mM NaCl, 1% Triton X-100 supplemented with […] Halt™ phosphatase and protease inhibitor cocktail (Thermo Fisher)). Cells were lysed by sonication on ice (three cycles of 10′′ on, 10′′ off at 25% maximum amplitude), centrifuged (14,000g, 10 min, 4 °C). The clear lysate was diluted to 1 mg/mL in IP-buffer and subjected to immunoprecipitation using Dynabeads™ Protein G Immunoprecipitation kit (Thermo Fisher) following manufacturer’s protocol. Briefly, anti-FLAG M2 antibody (1:100, Sigma Aldrich, F3156) was incubated with beads with gentle rotation (10 min, rt), after which lysate (500 µL of 1 mg/mL) was added and incubated (1 h, 4 °C). Beads were washed three times, transferred to clean tubes and eluted by suspension in 2× Laemmli buffer (50 µL, 10 min, 70 °C). Samples (10 µL per lane) were resolved by SDS-PAGE and immunoblotted using anti-V5 or anti-FLAG antibodies. Immunoprecipitations were performed in three independent replicates.

[3] = molecular target: AKT3 (PKB gamma) (Homo sapiens, UniProt Q9Y243); experiment: SelectScreen kinase assay; conditions: for Inhibition at 1 µM (%): AKT3 (PKB gamma), ZLYTE, ATP Km app
Experimental: (§1) Selectivity profiling assays were performed by the Invitrogen SelectScreen™ Services. […] The concentration of ATP was selected to be equal to the KM, unless indicated otherwise.

[4] = molecular target: EPHA4 (Homo sapiens, UniProt P54764); experiment: SelectScreen kinase assay
Experimental: as §1

[5] = molecular target: FLT3 (Homo sapiens, UniProt P36888); experiment: SelectScreen kinase assay
Experimental: as §1

[6] = test system: FLT3; experiment: SelectScreen kinase assay; conditions: IC50 on that kinase divided by IC50 on FES^S700C
Experimental: as §1

[7] = molecular target: GRK7 (Homo sapiens, UniProt Q8WTQ7); experiment: SelectScreen kinase assay; conditions: 1 h, 1 μM WEL028, 1 h preincubation
Experimental: as §1

[8] = molecular target: HIPK3 (YAK1) (Homo sapiens, UniProt Q9H422); experiment: SelectScreen kinase assay
Experimental: as §1

[9] = molecular target: T3, MAP3K7/MAP3K7IP1 (TAK1-TAB1) (Homo sapiens, UniProt O43318); experiment: SelectScreen kinase assay
T3 sequence (O43318 1-303 limits assumed): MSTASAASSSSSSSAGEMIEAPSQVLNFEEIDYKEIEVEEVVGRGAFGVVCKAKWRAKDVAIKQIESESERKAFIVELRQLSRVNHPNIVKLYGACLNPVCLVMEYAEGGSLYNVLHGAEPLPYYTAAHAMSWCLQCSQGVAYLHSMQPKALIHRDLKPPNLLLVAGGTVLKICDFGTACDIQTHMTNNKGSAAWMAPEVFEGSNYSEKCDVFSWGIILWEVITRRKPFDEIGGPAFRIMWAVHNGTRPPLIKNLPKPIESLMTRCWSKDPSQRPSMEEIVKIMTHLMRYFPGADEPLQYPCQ
T3 sequence (Q15750 437-504 partner limits assumed): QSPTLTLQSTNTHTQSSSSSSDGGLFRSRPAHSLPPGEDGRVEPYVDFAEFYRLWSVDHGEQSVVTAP
Experimental: as §1

[10] = molecular target: T4, PDK1 Direct (Homo sapiens, UniProt O15530); experiment: SelectScreen kinase assay
T4 sequence (O15530 1-556): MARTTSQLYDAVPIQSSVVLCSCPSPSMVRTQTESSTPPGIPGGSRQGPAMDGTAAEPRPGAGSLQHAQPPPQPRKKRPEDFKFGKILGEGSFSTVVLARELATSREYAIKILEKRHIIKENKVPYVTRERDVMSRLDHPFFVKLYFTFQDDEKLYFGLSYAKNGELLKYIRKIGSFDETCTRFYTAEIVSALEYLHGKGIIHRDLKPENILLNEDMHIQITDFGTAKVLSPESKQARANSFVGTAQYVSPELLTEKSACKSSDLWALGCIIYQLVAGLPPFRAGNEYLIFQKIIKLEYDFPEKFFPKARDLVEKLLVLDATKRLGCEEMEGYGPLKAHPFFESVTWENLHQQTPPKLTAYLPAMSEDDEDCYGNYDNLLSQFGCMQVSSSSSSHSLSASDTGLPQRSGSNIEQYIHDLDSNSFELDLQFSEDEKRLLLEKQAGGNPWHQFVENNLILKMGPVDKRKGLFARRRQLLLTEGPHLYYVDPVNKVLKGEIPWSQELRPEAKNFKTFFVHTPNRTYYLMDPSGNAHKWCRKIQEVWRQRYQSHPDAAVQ
Experimental: as §1

[11] = molecular target: SNF1LK2 (Homo sapiens, UniProt Q9H0K1); experiment: SelectScreen kinase assay
Experimental: as §1

[12] = molecular target: YES1 (Homo sapiens, UniProt P07947); experiment: SelectScreen kinase assay
Experimental: as §1

[13] = 1 h, 1 μM WEL028, 1 h preincubation
[14] = 1 µM, ZLYTE, ATP Km app, listed as WEL028, 1 µM

T1 sequence (P07332 448-822): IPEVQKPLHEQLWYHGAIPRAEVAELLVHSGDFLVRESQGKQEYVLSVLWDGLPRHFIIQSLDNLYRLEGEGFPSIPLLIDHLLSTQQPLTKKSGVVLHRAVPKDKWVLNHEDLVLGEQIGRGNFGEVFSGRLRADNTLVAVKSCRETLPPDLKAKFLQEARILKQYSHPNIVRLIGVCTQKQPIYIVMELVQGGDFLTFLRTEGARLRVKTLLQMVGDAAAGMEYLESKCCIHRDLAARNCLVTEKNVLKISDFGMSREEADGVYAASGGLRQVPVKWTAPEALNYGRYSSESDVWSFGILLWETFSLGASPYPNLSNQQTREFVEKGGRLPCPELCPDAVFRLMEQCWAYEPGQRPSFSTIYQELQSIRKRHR
AKT3 (PKB gamma), sequence (Q9Y243 whole entry): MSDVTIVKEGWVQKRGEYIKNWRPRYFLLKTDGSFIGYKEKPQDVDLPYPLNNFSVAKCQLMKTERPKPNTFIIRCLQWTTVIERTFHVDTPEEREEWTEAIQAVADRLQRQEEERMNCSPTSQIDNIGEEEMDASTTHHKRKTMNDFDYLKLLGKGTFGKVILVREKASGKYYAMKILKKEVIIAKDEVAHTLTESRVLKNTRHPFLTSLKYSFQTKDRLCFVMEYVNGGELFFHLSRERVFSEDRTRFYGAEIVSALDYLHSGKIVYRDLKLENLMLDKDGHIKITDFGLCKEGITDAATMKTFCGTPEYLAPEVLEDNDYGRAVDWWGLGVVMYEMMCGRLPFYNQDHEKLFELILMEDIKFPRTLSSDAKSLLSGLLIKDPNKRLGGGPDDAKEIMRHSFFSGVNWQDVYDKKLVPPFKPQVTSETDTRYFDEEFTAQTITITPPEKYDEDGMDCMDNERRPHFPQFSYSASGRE
YES1, sequence (P07947 whole entry): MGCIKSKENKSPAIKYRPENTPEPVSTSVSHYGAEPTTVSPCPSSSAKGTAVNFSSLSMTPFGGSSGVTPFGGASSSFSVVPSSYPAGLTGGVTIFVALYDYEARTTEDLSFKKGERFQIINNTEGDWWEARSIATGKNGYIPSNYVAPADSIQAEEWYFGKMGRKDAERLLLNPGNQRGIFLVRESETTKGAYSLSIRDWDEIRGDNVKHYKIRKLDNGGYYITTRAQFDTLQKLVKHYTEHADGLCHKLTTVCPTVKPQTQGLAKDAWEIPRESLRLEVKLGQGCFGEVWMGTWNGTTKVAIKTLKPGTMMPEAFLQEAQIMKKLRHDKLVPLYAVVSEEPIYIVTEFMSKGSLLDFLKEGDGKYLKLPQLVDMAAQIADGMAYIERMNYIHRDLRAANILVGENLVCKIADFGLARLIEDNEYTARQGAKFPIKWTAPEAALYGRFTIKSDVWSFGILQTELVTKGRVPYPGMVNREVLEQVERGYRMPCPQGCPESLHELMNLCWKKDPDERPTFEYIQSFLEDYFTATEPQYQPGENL
FLT3 (Homo sapiens, UniProt P36888), sequence (P36888 27-993, species assumed): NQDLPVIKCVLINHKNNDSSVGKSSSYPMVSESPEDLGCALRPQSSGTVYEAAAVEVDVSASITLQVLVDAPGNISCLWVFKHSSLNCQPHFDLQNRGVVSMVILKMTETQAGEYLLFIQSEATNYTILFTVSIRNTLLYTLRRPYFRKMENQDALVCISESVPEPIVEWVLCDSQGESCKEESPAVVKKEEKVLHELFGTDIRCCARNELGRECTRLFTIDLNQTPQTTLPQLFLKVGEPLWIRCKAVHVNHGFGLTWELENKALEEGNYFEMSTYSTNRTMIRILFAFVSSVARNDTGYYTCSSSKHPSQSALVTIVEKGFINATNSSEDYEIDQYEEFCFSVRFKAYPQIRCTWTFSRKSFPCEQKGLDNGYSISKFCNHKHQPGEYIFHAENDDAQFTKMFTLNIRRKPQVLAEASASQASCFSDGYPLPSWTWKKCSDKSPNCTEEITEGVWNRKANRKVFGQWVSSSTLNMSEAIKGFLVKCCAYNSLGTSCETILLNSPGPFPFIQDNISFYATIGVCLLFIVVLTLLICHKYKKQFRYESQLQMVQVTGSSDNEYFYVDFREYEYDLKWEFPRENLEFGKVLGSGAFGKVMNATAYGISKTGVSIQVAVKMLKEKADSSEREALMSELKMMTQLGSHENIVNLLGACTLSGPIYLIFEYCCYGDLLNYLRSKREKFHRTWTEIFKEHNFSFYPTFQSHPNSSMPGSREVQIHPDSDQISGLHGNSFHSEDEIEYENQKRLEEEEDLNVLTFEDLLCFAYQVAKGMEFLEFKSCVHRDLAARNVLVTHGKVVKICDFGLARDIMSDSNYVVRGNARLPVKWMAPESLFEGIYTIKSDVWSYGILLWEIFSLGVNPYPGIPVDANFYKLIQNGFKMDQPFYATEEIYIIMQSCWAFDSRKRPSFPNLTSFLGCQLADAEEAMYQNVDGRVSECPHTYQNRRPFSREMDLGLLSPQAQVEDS
EPHA4, sequence (P54764 20-986): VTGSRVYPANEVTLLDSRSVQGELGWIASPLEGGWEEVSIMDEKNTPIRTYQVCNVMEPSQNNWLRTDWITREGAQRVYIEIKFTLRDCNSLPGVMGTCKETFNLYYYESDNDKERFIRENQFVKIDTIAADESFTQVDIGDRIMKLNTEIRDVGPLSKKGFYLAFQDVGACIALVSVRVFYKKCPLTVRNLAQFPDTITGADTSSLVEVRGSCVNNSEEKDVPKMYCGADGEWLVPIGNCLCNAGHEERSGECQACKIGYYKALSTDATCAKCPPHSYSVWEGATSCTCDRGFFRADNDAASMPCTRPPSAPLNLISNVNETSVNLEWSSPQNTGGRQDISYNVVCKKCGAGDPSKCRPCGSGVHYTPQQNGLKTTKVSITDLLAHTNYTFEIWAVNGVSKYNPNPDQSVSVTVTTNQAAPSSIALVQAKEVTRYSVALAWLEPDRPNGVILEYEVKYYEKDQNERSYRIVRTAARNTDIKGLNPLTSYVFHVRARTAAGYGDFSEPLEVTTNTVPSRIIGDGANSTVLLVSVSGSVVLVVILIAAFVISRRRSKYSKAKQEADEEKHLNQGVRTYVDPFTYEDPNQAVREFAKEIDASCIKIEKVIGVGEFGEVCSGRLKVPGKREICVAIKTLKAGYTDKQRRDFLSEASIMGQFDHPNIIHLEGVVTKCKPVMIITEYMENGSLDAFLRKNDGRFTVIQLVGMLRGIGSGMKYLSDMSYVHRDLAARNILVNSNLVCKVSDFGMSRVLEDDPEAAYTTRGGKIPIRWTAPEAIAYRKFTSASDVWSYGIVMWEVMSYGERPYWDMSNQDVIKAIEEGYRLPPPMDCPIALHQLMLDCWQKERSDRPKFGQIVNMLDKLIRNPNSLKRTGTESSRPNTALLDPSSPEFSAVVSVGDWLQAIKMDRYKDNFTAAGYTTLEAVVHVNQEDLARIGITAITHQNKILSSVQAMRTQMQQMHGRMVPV
SNF1LK2, sequence (Q9H0K1 whole entry): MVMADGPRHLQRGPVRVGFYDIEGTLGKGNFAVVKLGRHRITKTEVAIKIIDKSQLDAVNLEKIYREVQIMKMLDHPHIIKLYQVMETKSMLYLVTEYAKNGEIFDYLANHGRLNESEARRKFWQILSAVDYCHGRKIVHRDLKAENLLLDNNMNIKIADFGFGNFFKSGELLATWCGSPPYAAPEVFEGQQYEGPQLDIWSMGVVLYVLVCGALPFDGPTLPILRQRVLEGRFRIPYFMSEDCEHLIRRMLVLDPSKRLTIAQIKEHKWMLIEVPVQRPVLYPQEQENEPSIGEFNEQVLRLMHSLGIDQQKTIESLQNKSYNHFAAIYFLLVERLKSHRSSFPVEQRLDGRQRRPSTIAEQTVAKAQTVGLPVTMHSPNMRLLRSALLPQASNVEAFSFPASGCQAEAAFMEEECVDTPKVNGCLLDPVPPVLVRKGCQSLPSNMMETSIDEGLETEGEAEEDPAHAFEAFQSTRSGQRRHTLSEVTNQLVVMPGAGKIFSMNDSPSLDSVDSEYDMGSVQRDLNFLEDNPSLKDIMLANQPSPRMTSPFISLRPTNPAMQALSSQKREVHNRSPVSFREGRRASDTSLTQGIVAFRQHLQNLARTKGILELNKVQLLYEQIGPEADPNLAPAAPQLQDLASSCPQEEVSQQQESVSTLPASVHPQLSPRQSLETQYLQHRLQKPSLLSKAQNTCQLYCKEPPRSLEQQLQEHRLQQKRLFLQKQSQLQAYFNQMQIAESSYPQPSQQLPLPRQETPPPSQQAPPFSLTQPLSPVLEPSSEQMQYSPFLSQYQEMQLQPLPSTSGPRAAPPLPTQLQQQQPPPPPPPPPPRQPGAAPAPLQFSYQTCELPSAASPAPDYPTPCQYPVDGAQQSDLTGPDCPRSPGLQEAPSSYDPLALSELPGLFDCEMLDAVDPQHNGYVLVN
GRK7, sequence (Q8WTQ7 whole entry): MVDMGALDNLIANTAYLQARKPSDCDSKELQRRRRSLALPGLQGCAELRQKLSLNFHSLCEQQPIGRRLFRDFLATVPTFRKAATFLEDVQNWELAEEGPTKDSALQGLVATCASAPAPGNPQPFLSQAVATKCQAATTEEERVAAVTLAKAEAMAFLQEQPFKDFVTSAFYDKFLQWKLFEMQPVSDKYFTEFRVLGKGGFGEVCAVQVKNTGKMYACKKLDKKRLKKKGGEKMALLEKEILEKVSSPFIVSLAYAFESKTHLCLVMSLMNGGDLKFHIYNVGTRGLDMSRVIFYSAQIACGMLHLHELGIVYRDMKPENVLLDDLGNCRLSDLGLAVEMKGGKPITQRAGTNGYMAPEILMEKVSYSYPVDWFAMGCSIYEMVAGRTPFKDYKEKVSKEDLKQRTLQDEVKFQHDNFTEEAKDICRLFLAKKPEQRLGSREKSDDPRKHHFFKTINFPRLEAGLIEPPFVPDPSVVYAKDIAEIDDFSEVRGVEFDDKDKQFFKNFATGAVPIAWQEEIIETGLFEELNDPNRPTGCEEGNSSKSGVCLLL

## C#CCOc1ccc(Nc2ncc(Cl)c(Nc3ccccc3NC(=O)C=C)n2)c(OC)c1 [Compound 6]
[1]; time 0 min
  Mean signal, time course: -37.0
[1]; time 5 min
  Mean signal, time course: 24.0
[1]; time 10 min
  Mean signal, time course: 80.0
[1]; time 15 min
  Mean signal, time course: 138.0
[1]; time 20 min
  Mean signal, time course: 193.0
[1]; time 25 min
  Mean signal, time course: 246.0
[1]; time 30 min
  Mean signal, time course: 301.0
[1]; time 35 min
  Mean signal, time course: 361.0
[1]; time 40 min
  Mean signal, time course: 414.0
[1]; time 45 min
  Mean signal, time course: 472.0
[1]; time 50 min
  Mean signal, time course: 524.0
[1]; time 55 min
  Mean signal, time course: 585.0
[1]; time 60 min
  Mean signal, time course: 641.0
[2]
  Co-precipitation of SYK with FES: inhibited the co-precipitation of SYK with FES
[3]; [13]
  inhibition at 1 µM: 1%
[3]
  Inhibition at 1 µM (%): 3%
[3]; listed as WEL028, 1 µM
  Inhibition at 1 µM (%): 0%
[4]; [13]
  inhibition at 1 µM: 5%
[4]; EPHA4, 1 µM, ZLYTE, ATP Km app, listed as WEL028, 1 µM
  Inhibition at 1 µM (%): 4%
[4]; read-out: Inhibition at 1 µM (%), EPHA4, 1 µM, ZLYTE, ATP Km app
  inhibition at 1 µM: 5%
[5]
  IC50: 3.16 µM
[5]; [13]
  inhibition at 1 µM: 61%
[5]; FLT3, 1 µM, ZLYTE, ATP Km app, listed as WEL028, 1 µM
  Inhibition at 1 µM (%): 58%
[5]; read-out: Inhibition at 1 µM (%), FLT3, 1 µM, ZLYTE, ATP Km app
  inhibition at 1 µM: 64%
[6]
  Apparent fold selectivity: 718 fold
[7]
  inhibition at 1 µM: 11%
[8]; [13]
  inhibition at 1 µM: -3%
[8]; HIPK3 (YAK1), 1 µM, ZLYTE, ATP Km app
  Inhibition at 1 µM (%): -11%
[9]; [13]
  inhibition at 1 µM: 13%
[9]; MAP3K7/MAP3K7IP1 (TAK1-TAB1), 1 µM, LanthaScreen Binding, listed as WEL028, 1 µM
  Inhibition at 1 µM (%): 15%
[9]; read-out: Inhibition at 1 µM (%), MAP3K7/MAP3K7IP1 (TAK1-TAB1), 1 µM, LanthaScreen Binding
  inhibition at 1 µM: 11%
[10]; [13]
  inhibition at 1 µM: 5%
[10]; PDK1 Direct, 1 µM, ZLYTE, ATP Km app, listed as WEL028, 1 µM
  Inhibition at 1 µM (%): 3%
[10]; read-out: Inhibition at 1 µM (%), PDK1 Direct, 1 µM, ZLYTE, ATP Km app
  inhibition at 1 µM: 6%
[11]; [14]
  Inhibition at 1 µM (%): -8% and -5%
[11]; [13]
  inhibition at 1 µM: -6%
[12]; [14]
  Inhibition at 1 µM (%): 10%
[12]; [13]
  inhibition at 1 µM: 8%
[12]; read-out: Inhibition at 1 µM (%), 1 µM, ZLYTE, ATP Km app
  inhibition at 1 µM: 7%

— article PMC7316778 (Nature Communications, 2020)
